In patent publication US4614746A, “5-fluorobenzonitrile derivatives for increasing the lean meat to fat ratio and/or enhancing the growth rate of warm-blooded animals” (American Cyanamid Company, priority 1985, dated 1986):

Experiments:
CFI female mice [1] = experiment: Antilipogenic evaluation of test compounds - mouse study (fat pad and body weight, 12-day feeding); assay type: in vivo; details: 12 days
Experimental: CFI female mice from Carworth Farms are received when they are six-weeks old. They are housed ten to a cage in air-conditioned rooms (22° C. to 25° C.) with automatically-controlled lights, 14 hours on and ten hours off. The basal diet used in these studies is Purina Laboratory Chow (see description below) which is supplied ad libitum. The following is a description of the diet to which the growth-promoting compounds were added. Meat and bone meal, dried skimmed milk, wheat germ meal, fish meal, animal liver meal, dried beet pulp, ground extruded corn, ground oat groats, soybean meal, dehydrated alfalfa metal, cane molasses, animal fat preserved with BHA, vitamin B12 supplement, calcium pantothenate, choline chloride, folic acid, riboflavin supplement, brewer's dried yeast, thiamin, niacin, vitamin A supplement, D-activated plant sterol, vitamin E supplement, calcium carbonate, dicalcium phosphate, iodized salt, ferric ammonium citrate, iron oxide, manganous oxide, cobalt carbonate, copper oxide, zinc oxide. Water is also allowed ad libitum. Thirteen days after arrival, the mice are weighed in groups of ten and assigned at random to the different treatments. Each of the treatments is tested in three replicates, i.e., in three cages of ten mice each. There are ten cages of ten control mice each. Drugs are mixed in the diet at the dosage level indicated. Feed and water are offered ad libitum for a 12-day test period. Feed spilled is collected during the test period. At the end of the test period, the collected feed is weighed, and the mean feed consumption per cage of ten mice is determined for each treatment. The mice are weighed as a group of ten, and the weight gain determined. The mice are sacrificed by cervical dislocation. The right uterine fat pad of each mouse is removed. The fat pads for each cage of ten mice are weighed as a unit. Reduction in fat pad weights of animals is generally indicative of a reduction of total body fat of the treated animals.

CFI female mice [2] = experiment: Antilipogenic evaluation of test compounds - mouse study (Example 6, procedure of Example 4); assay type: in vivo
Experimental: CFI female mice from Carworth Farms are received when they are six-weeks old. They are housed ten to a cage in air-conditioned rooms (22° C. to 25° C.) with automatically-controlled lights, 14 hours on and ten hours off. The basal diet used in these studies is Purina Laboratory Chow (see description below) which is supplied ad libitum.
Thirteen days after arrival, the mice are weighed in groups of ten and assigned at random to the different treatments. Each of the treatments is tested in three replicates, i.e., in three cages of ten mice each. There are ten cages of ten control mice each. Drugs are mixed in the diet at the dosage level indicated. Feed and water are offered ad libitum for a 12-day test period. Feed spilled is collected during the test period. At the end of the test period, the collected feed is weighed, and the mean feed consumption per cage of ten mice is determined for each treatment. The mice are weighed as a group of ten, and the weight gain determined. The mice are sacrificed by cervical dislocation. The right uterine fat pad of each mouse is removed. The fat pads for each cage of ten mice are weighed as a unit. Reduction in fat pad weights of animals is generally indicative of a reduction of total body fat of the treated animals.
Following the procedure of Example 4, the analogues of the compounds of the invention in the subject Application are evaluated as antilipogenic agents.

## CCCC(C)NCC(O)c1cc(F)cc(C#N)c1 (stereo not drawn) [drawing 15]
CFI female mice [1]; 50 ppm in diet
  % Change in Body Weight vs controls: +15.9%
  % Reduction in Fat Pad Weight vs Controls: -5.6%
CFI female mice [1]; 100 ppm in diet
  % Change in Body Weight vs controls: +1.2%
  % Reduction in Fat Pad Weight vs Controls: -15.5%
CFI female mice [1]; 200 ppm in diet
  % Change in Body Weight vs controls: +22.4%
  % Reduction in Fat Pad Weight vs Controls: -22.8%

## CCNCC(O)c1cc(F)cc(C#N)c1 (stereo not drawn) [drawing 16]
CFI female mice [1]; 50 ppm in diet
  % Change in Body Weight vs controls: +18.8%
  % Reduction in Fat Pad Weight vs Controls: +4.3%
CFI female mice [1]; 100 ppm in diet
  % Change in Body Weight vs controls: -4.1%
  % Reduction in Fat Pad Weight vs Controls: -33.3%
CFI female mice [1]; 200 ppm in diet
  % Change in Body Weight vs controls: +25.3%
  % Reduction in Fat Pad Weight vs Controls: -37.9%

## CC(C)N(CC(O)c1cc(F)cc(C#N)c1)C(C)C (stereo not drawn) [drawing 17]
CFI female mice [1]; 200 ppm in diet
  % Change in Body Weight vs controls: +19.05%
  % Reduction in Fat Pad Weight vs Controls: -19.36%
CFI female mice [1]; second dose, not given
  % Change in Body Weight vs controls: -2.38%
  % Reduction in Fat Pad Weight vs Controls: -15.39%

## CC(C)(C)NCC(O)c1cc(F)cc(C#N)c1 (stereo not drawn) [drawing 24]
CFI female mice [2]; 100 ppm
  Mouse Test Fat Pad Weight % ± Control: -38.4%
CFI female mice [2]; 200 ppm
  Mouse Test Fat Pad Weight % ± Control: -42.9%
